Test results published in patent publication US20210121426A1, “BLOOD PURIFICATION BY ALKALINIZING AGENT” (TOHOKU UNIVERSITY, priority 2017, published 2021).
Marks after values point to notes of the source that are not given here.

Legend:
phenylacetyl-L-glutamine = experiment: Human clinical trial in CKD patients: phenylacetyl-L-glutamine in plasma and early morning urine (LC-MS/MS); type: in vivo; parameters: key to Influence on concentration of PAG / Influence on PAG U/P ratio: Excellent effects: ◯; Poor effects: X; No significant difference: —; (◯): whether or not there is an effect of promoting excretion of indoxyl sulfate into the urine cannot be determined
Experimental: (§1) 1. […] Patients were assigned to each group so that age, sex, presence of diabetes, and eGFR were not biased. Each group was treated according to the “CKD medical care guide-summary of treatment” (hereinafter referred to as standard treatment).
(§2) An alkalinizing agent was not administered to the control group. […] A pH of early morning urine was controlled over time so that the dosage could be increased up to 6 tablets, 3 times a day (morning, noon, evening) as needed according to the discretion of the physician in cases where a pH of early morning urine was less than pH 6.5. To the group B, 3 tablets a day in which each tablet contained 500 mg of sodium bicarbonate were orally administered 3 times a day (morning, noon, evening) for 24 weeks. A pH of early morning urine was controlled over time so that the dosage could be increased up to 6 tablets, 3 times a day (morning, noon, evening) as needed according to the discretion of the physician in cases where a pH of early morning urine was less than pH 6.5.
Early morning urine and blood were collected before the start of administration, and 6 weeks, 12 weeks, and 24 weeks after the start of administration, and each specimen was stored at −80° C. Methods used in the present field for indoxyl sulfate, p-cresyl sulfate, phenylacetyl-L-glutamine, hippuric acid, and argininosuccinic acid in urine and blood (Sato, E., et. al., Metabolic alteration by indoxyl sulfate in skeletal muscle induce uremic sarcopenia in chronic kidney disease., Sci Rep. 2016 Nov. 10; 6:36618. doi: 10.1038/srep36618, and the like) were referred to, and quantitative analysis was performed using the following liquid chromatography triple quadrupole mass spectrometer (LC-MS/MS).
For LC, NANOSPACE SI-2 (manufactured by Shiseido) was used, and […] MGM was selected as the analytical column.
For MS, TSQ Quantiva (manufactured by Thermo Fisher Scientific Co., Ltd.) was used, and five compounds were ionized in the negative mode and detected using the Selected Reaction Monitoring method. The quantitative value was calculated using a calibration curve prepared with a standard solution of each compound.
For statistical analysis, the Mann-Whitney test was used for comparison between groups, and the Wilcoxon test was used for comparison of changes over time. The Pearson test was used for correlation.
Then, the average value and SD of each group were calculated for (i) to (ix) above. For each of (iv) to (ix) above, the average value and SD of each group were calculated for all data of 6 weeks, 12 weeks, and 24 weeks after the start of administration in each group.

indoxyl sulfate = experiment: Urine indoxyl sulfate (IS) corrected by urinary specific gravity; type: in vivo, human
From the text: (§3) Medical Examination, Vol. 44, No. 1, 1995, pages 79-83 by Tetsuo Aoki et al. was referred to. A urinary specific gravity 1.022 was converted into a reference value.
(§4) Specific gravity correction value (unit/1.022·UG)=actual measurement value×(1.022−1.000)/(specific gravity value−1.000)

hippuric acid = experiment: Urine hippuric acid (HA) corrected by urinary specific gravity; type: in vivo, human
From the text: as §3, §4

argininosuccinic acid = experiment: Urine argininosuccinic acid (ASA) corrected by urinary specific gravity; type: in vivo, human
From the text: as §3, §4

[1] = Human clinical trial: osmotic pressure of early morning urine (freezing point depression method); type: in vivo
Experimental: as §1, §2
The osmotic pressure was measured using the freezing point depression method.

[2] = 0 W, before the start of administration
[3] = 6-24 W, all data of 6, 12 and 24 weeks

## O=C([O-])O.[Na+] [Bicarbonate, sodium bicarbonate]
phenylacetyl-L-glutamine; [2]
  Phenyl Acetyl L-Glutamine (PAG)-Urine/Plasma ratio: 102.2 ± 96.5
  Plasma Phenyl Acetyl L-Glutamine (PAG): 1324 ± 949 ng/mL
  Urine Phenyl Acetyl L-Glutamine (PAG) (early morning urine): 124676 ± 149757 ng/mL
phenylacetyl-L-glutamine; [3]
  PAG - Urine/Plasma ratio, change from week 0: −14.9 ± 95.3
  Phenyl Acetyl L-Glutamine (PAG)-Urine/Plasma ratio: 87.3 ± 86.2
  Plasma PAG, change from week 0: -98.6 ± 688.1 ng/mL
  Plasma Phenyl Acetyl L-Glutamine (PAG): 1226 ± 983 ng/mL
  Urine PAG, change from week 0: -13663 ± 74566 ng/mL
  Urine Phenyl Acetyl L-Glutamine (PAG) (early morning urine): 109378 ± 163923 ng/mL
phenylacetyl-L-glutamine; 6 W
  PAG - Urine/Plasma ratio, change from week 0: −8.5 ± 57.8
  Phenyl Acetyl L-Glutamine (PAG)-Urine/Plasma ratio: 93.7 ± 84.0
  Plasma PAG, change from week 0: -84.0 ± 636.1 ng/mL
  Plasma Phenyl Acetyl L-Glutamine (PAG): 1240 ± 1062 ng/mL
  Urine PAG, change from week 0: 20077 ± 118811 ng/mL
  Urine Phenyl Acetyl L-Glutamine (PAG) (early morning urine): 144753 ± 246773 ng/mL
phenylacetyl-L-glutamine; 12 W
  PAG - Urine/Plasma ratio, change from week 0: −31.8 ± 81.8
  Phenyl Acetyl L-Glutamine (PAG)-Urine/Plasma ratio: 70.4 ± 46.8
  Plasma PAG, change from week 0: -171.6 ± 896.9 ng/mL
  Plasma Phenyl Acetyl L-Glutamine (PAG): 1153 ± 1000 ng/mL
  Urine PAG, change from week 0: -42198 ± 85069 ng/mL
  Urine Phenyl Acetyl L-Glutamine (PAG) (early morning urine): 82478 ± 112943^b ng/mL
phenylacetyl-L-glutamine; 12 and 24 weeks after administration, compared to before administration
  concentration of phenylacetyl-L-glutamine in urine: such an effect was not recognized
phenylacetyl-L-glutamine; 24 W
  PAG - Urine/Plasma ratio, change from week 0: −4.3 ± 133.9
  Phenyl Acetyl L-Glutamine (PAG)-Urine/Plasma ratio: 97.9 ± 116.4
  Plasma PAG, change from week 0: -40.3 ± 514.7 ng/mL
  Plasma Phenyl Acetyl L-Glutamine (PAG): 1284 ± 945 ng/mL
  Urine PAG, change from week 0: -23774 ± 117957 ng/mL
  Urine Phenyl Acetyl L-Glutamine (PAG) (early morning urine): 100902 ± 91424 ng/mL
phenylacetyl-L-glutamine; Plasma, comparison with Cont
  Influence on concentration of PAG: —
phenylacetyl-L-glutamine; Plasma, comparison with reference drug
  Influence on concentration of PAG: —
phenylacetyl-L-glutamine; comparison with Cont
  Influence on PAG U/P ratio: —
phenylacetyl-L-glutamine; comparison with reference drug
  Influence on PAG U/P ratio: —
phenylacetyl-L-glutamine; Urine, comparison with Cont
  Influence on concentration of PAG: —
phenylacetyl-L-glutamine; Urine, comparison with reference drug
  Influence on concentration of PAG: X
phenylacetyl-L-glutamine; compared to before administration
  concentration of phenylacetyl-L-glutamine in plasma (decreasing effect): strongly recognized
Indoxyl sulfate; 6-24 W, all data
  Urine IS, specific gravity corrected: 76.7 ± 38.0 μg · mL^−1/1.022 · UG
  Urine IS, specific gravity corrected, % Relative value vs week 0: 89 ± 45%
  Urine IS, specific gravity corrected, difference vs week 0: −15.9 ± 34.4 μg · mL^−1/1.022 · UG
Indoxyl sulfate; 6 W
  Urine IS, specific gravity corrected: 83.3 ± 41.9 μg · mL^−1/1.022 · UG
  Urine IS, specific gravity corrected, % Relative value vs week 0: 95 ± 30%
  Urine IS, specific gravity corrected, difference vs week 0: −9.3 ± 27.7 μg · mL^−1/1.022 · UG
Indoxyl sulfate; 12 W
  Urine IS, specific gravity corrected, % Relative value vs week 0: 77 ± 42%
  Urine IS, specific gravity corrected, difference vs week 0: −27.0 ± 32.9^ μg · mL^−1/1.022 · UG
Indoxyl sulfate; 24 W
  Urine IS, specific gravity corrected: 81.1 ± 41.6 μg · mL^−1/1.022 · UG
  Urine IS, specific gravity corrected, % Relative value vs week 0: 95 ± 59%
  Urine IS, specific gravity corrected, difference vs week 0: −11.4 ± 40.8 μg · mL^−1/1.022 · UG
Hippuric acid; 0 W
  Urine HA, specific gravity corrected: 202.3 ± 185.6 μg · mL^−1/1.022 · UG
Hippuric acid; 6-24 W, all data
  Urine HA, specific gravity corrected: 170.2 ± 101.6 μg · mL^−1/1.022 · UG
  Urine HA, specific gravity corrected, % Relative value vs week 0: 118 ± 106%
  Urine HA, specific gravity corrected, difference vs week 0: −32.1 ± 160.3 μg · mL^−1/1.022 · UG
Hippuric acid; 6 W
  Urine HA, specific gravity corrected: 161.8 ± 111.1 μg · mL^−1/1.022 · UG
  Urine HA, specific gravity corrected, % Relative value vs week 0: 104 ± 89%
  Urine HA, specific gravity corrected, difference vs week 0: −40.5 ± 171.7 μg · mL^−1/1.022 · UG
Hippuric acid; 12 W
  Urine HA, specific gravity corrected: 171.1 ± 87.0 μg · mL^−1/1.022 · UG
  Urine HA, specific gravity corrected, % Relative value vs week 0: 133 ± 134%
  Urine HA, specific gravity corrected, difference vs week 0: −31.2 ± 163.7 μg · mL^−1/1.022 · UG
Hippuric acid; 24 W
  Urine HA, specific gravity corrected: 177.7 ± 111.0 μg · mL^−1/1.022 · UG
  Urine HA, specific gravity corrected, % Relative value vs week 0: 118 ± 96%
  Urine HA, specific gravity corrected, difference vs week 0: −24.6 ± 155.3 μg · mL^−1/1.022 · UG
Argininosuccinic acid; 0 W
  Urine ASA, specific gravity corrected: 5.87 ± 5.13 μg · mL^−1/1.022 · UG
Argininosuccinic acid; 6-24 W, all data
  Urine ASA, specific gravity corrected: 5.02 ± 3.37 μg · mL^−1/1.022 · UG
  Urine ASA, specific gravity corrected, % Relative value vs week 0: 97 ± 31%
  Urine ASA, specific gravity corrected, difference vs week 0: −0.85 ± 2.76 μg · mL^−1/1.022 · UG
Argininosuccinic acid; 6 W
  Urine ASA, specific gravity corrected: 5.47 ± 3.87 μg · mL^−1/1.022 · UG
  Urine ASA, specific gravity corrected, % Relative value vs week 0: 101 ± 32%
  Urine ASA, specific gravity corrected, difference vs week 0: −0.40 ± 2.25 μg · mL^−1/1.022 · UG
Argininosuccinic acid; 12 W
  Urine ASA, specific gravity corrected: 4.66 ± 2.78 μg · mL^−1/1.022 · UG
  Urine ASA, specific gravity corrected, % Relative value vs week 0: 93 ± 29%
  Urine ASA, specific gravity corrected, difference vs week 0: −0.21 ± 3.04 μg · mL^−1/1.022 · UG
Argininosuccinic acid; 24 W
  Urine ASA, specific gravity corrected: 4.93 ± 3.58 μg · mL^−1/1.022 · UG
  Urine ASA, specific gravity corrected, % Relative value vs week 0: 97 ± 33%
  Urine ASA, specific gravity corrected, difference vs week 0: −0.94 ± 3.02 μg · mL^−1/1.022 · UG
[1]; 0 W, before the start of the test
  Urine Osmotic Pressure: 492 ± 206 mOsm/kg
[1]; 6-24 W, all data
  Urine Osmotic Pressure: 486 ± 164 mOsm/kg
  Urine Osmotic Pressure (% Relative value vs week 0): 109 ± 45^b %
  Urine Osmotic Pressure, difference vs week 0: −6 ± 168 mOsm/kg
[1]; 6 W
  Urine Osmotic Pressure: 488 ± 154 mOsm/kg
  Urine Osmotic Pressure (% Relative value vs week 0): 108 ± 34%
  Urine Osmotic Pressure, difference vs week 0: −4 ± 165 mOsm/kg
[1]; 12 W
  Urine Osmotic Pressure: 456 ± 143 mOsm/kg
  Urine Osmotic Pressure (% Relative value vs week 0): 105 ± 57%
  Urine Osmotic Pressure, difference vs week 0: −36 ± 176^ mOsm/kg
[1]; 24 W
  Urine Osmotic Pressure: 515 ± 195 mOsm/kg
  Urine Osmotic Pressure (% Relative value vs week 0): 114 ± 45%
  Urine Osmotic Pressure, difference vs week 0: 23 ± 169 mOsm/kg
[1]; over 6, 12 and 24 weeks, compared with the control group
  osmotic pressure value of early morning urine: maintained or increased
